In brackets after ≈: the same amount, converted by molar mass. Where two headings read alike, the source gives them in different places. Numbered stars: 1 amine (or outer) side, 2 acyl side, 3 side chain; on linkers, the order of the positions; unused ones are H or OH. Bridge positions count the residues as written; N and C are the ends. Square brackets hold non-standard residues; d marks the D form. Peptide text beside a SMILES is read from it. X1 = CC(C)CCCCCCCCC[C@H](CC(=O)[*:1])O[*:2]
What was measured:
TNBS-induced colitis = TNBS-induced colitis in rats; assay type: in vivo, Wistar rats; conditions: for number of observations of diarrhea recorded / number of animals affected by diarrhea: day 1 to 7
From the text: Two consecutive trials were done. Male Wistar rats were obtained from the National Centre for Laboratory Animal Sciences (Hyderabad, India) (trial 1) or from the Department of Animal Medicine, […], India) (trial 2). […] Upon their arrival at the test facility, the animals were given a complete clinical examination under the supervision of a veterinarian to ensure that they were in good condition. The animals were acclimatized to the study conditions for a period of at least 7 days. Per trial, animals were randomised and allocated to one of the study groups. […] All animals had free access (except for the overnight fasting prior to TNBS administration) to rat pellet feed from the National Institute of Nutrition (NIN, Hyderabad, India) and Aquaguard purified water ad libitum. In both trials the day of induction of colitis was set as day 1. […] The colitis-negative control groups were given saline intrarectally (0.5 ml per animal once) on day 1. […] Except for infliximab, which was injected intravenously^59, all treatments were administered by gavage. Twice daily observations were made for clinical signs and mortality. […] These segments were opened longitudinally. […] Mesalazine (Mesacol®, Sun Pharmaceutical Ind. Ltd, Mumbai, India) tablets were powdered using pestle and mortar and a solution in distilled water was prepared containing 25 mg 5-aminosalicylic acid per ml. […] Remicade® (Infliximab) (Centocor B. V., Leiden, The Netherlands) was first reconstituted with 10 ml water for injection and was further diluted to 2 mg/ml concentration using saline. […] All body weight dependant doses were administered on the basis of the last individual body weight taken. Fresh preparations were made prior to each administration. The preparations were stirred vigorously before each dosing.

[1] = system: Clostridium difficile ATCC 9689; assay: Clindamycin-induced CDAD hamster model; assay type: in vivo, Golden Syrian hamsters; conditions: for diarrhea score / Number of animals with diarrhea: vancomycin 50 mg/Kg oral once daily days 2-6; for Number of animals tested positive for C difficile toxins A or B in faeces: vancomycin
Clostridium perfringens = assay: microbe, parasite or virus in culture; assay type: cell-based
C. perfringens ATCC13124 = assay: microbe, parasite or virus in culture; assay type: cell-based; conditions: Clostridium perfringens, ATCC13124, 18 h
cytosolic PLA2 = target: T1, cytosolic PLA2 (Homo sapiens, UniProt P47712); conditions: known from literature; cited from earlier work
T1 sequence (P47712 1-749): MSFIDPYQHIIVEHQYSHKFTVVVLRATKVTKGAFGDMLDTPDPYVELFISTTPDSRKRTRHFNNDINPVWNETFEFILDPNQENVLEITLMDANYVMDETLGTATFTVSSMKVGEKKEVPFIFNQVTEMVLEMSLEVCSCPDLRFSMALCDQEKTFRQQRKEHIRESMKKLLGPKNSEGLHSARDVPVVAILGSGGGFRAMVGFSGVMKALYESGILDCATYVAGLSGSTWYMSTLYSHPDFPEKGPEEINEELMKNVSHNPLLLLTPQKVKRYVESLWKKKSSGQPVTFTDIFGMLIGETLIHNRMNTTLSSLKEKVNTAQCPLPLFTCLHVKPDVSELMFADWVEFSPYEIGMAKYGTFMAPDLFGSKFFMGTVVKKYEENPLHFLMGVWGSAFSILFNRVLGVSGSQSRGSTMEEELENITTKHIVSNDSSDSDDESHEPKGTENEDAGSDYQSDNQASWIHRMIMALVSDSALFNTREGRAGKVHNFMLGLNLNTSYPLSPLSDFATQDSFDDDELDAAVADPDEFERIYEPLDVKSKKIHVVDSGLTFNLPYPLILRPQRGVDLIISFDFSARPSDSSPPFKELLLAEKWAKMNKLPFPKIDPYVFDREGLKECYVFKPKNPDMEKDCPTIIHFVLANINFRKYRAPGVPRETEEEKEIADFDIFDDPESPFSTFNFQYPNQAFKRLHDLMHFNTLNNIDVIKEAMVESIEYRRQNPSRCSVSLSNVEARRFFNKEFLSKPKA

[2] = Immune response (phagocytosis) in male broilers; assay type: in vivo; conditions: 100 mg/kg zinc bacitracin
[3] = Trial 1, Day 1 (baseline), mesalazine 250 mg/Kg/day, infliximab 3 mg/Kg single i.v. dose
[4] = Trial 1, Day 1 to 7, mesalazine 250 mg/Kg/day, infliximab 3 mg/Kg single i.v. dose
[5] = Trial 1, Day 4, mesalazine 250 mg/Kg/day, infliximab 3 mg/Kg single i.v. dose
[6] = Trial 1, Day 7, mesalazine 250 mg/Kg/day, infliximab 3 mg/Kg single i.v. dose
[7] = Trial 1, scale 0-5, mesalazine 250 mg/Kg/day, infliximab 3 mg/Kg single i.v. dose
[8] = Trial 1, mesalazine 250 mg/Kg/day, infliximab 3 mg/Kg single i.v. dose
[9] = Trial 2, Day 1 (baseline), PB6 and S. boulardii 1.5 10^8 CFU/Kg 3 times daily, mesalazine 250 mg/Kg/day, infliximab 3 mg/Kg single dose
[10] = Trial 2, Day 1 to 7, doses as for Day 1
[11] = Trial 2, Day 4, doses as for Day 1
[12] = Trial 2, Day 7, doses as for Day 1
[13] = Trial 2, scale 0-5, PB6 and S. boulardii 1.5 10^8 CFU/Kg 3 times daily, mesalazine 250 mg/Kg/day, infliximab 3 mg/Kg single dose
[14] = Trial 2, PB6 and S. boulardii 1.5 10^8 CFU/Kg 3 times daily, mesalazine 250 mg/Kg/day, infliximab 3 mg/Kg single dose
[15] = first trial, mesalazine 250 mg/Kg/day, infliximab 3 mg/Kg single dose
[16] = second trial, PB6 and S. boulardii 3×1.5 10^8 CFU/Kg/day, mesalazine 250 mg/Kg/day, infliximab 3 mg/Kg single dose
[17] = trial 1, one individual rat, infliximab 3 mg/Kg

Nc1ccc(O)c(C(=O)O)c1 [Mesalazine, 5-aminosalicylic acid]
Av. Body weight (TNBS-induced colitis; [3]): 181 ± 11 g | Av. Body weight gain (%) (TNBS-induced colitis; [4]): 8.8 ± 1.4 % | Av. Body weight (TNBS-induced colitis; [5]): 187 ± 10 g | Av. Body weight (TNBS-induced colitis; [6]): 196 ± 10 g | Gross morphology score (TNBS-induced colitis; [7]): 0.8 ± 0.4 | Wet weight (g) of a 5 cm colon segment (TNBS-induced colitis; [8]): 0.435 ± 0.052 g | Av. Body weight (TNBS-induced colitis; [9]): 207 ± 12 g | Av. Body weight gain (%) (TNBS-induced colitis; [10]): −3.3 ± 5.5% | Av. Body weight (TNBS-induced colitis; [11]): 199 ± 18 g | Av. Body weight (TNBS-induced colitis; [12]): 201 ± 20 g | Gross morphology score (TNBS-induced colitis; [13]): 1.2 ± 0.8 | Wet weight (g) of a 5 cm colon segment (TNBS-induced colitis; [14]): 0.445 ± 0.145 g | number of observations of diarrhea recorded (TNBS-induced colitis; [15]): 0 | number of animals affected by diarrhea (TNBS-induced colitis; [16]): 1 | number of observations of diarrhea recorded (TNBS-induced colitis; [16]): 12

CN[C@H](CC(C)C)C(=O)N[C@H]1C(=O)N[C@@H](CC(N)=O)C(=O)N[C@H]2C(=O)N[C@H]3C(=O)N[C@H](C(=O)N[C@H](C(=O)O)c4cc(O)cc(O)c4-c4cc3ccc4O)[C@H](O)c3ccc(c(Cl)c3)Oc3cc2cc(c3O[C@@H]2O[C@H](CO)[C@@H](O)[C@H](O)[C@H]2O[C@H]2C[C@](C)(N)[C@H](O)[C@H](C)O2)Oc2ccc(cc2Cl)[C@H]1O [Vancomycin, vancomycin]
Average body weight ([1]; Day 0 (baseline), CDAD induced, vancomycin 50 mg/Kg): 218.0 ± 4.6 g | diarrhea score ([1]; Day 1): + | Number of animals with diarrhea ([1]; Day 1, 6 animals): 1 | Number of animals tested positive for C difficile toxins A or B in faeces ([1]; Day 1, 6 tested): 0 | Number of animals with diarrhea ([1]; Day 2): 2 | diarrhea score ([1]; Day 2): ++ | Number of animals tested positive for C difficile toxins A or B in faeces ([1]; Day 2, 6 tested): 2 | Number of animals with diarrhea ([1]; Day 3): 2 | diarrhea score ([1]; Day 3): +++ | Number of animals tested positive for C difficile toxins A or B in faeces ([1]; Day 7, 4 tested): 1 | Survival at end of treatment period ([1]; day 6, vancomycin 50 mg/Kg once daily): 4 out of 6

CC(C)CCCCCCCCC[C@@H]1CC(=O)N[C@@H](CCC(=O)O)C(=O)N[C@@H](CC(C)C)C(=O)N[C@H](CC(C)C)C(=O)N[C@@H](C(C)C)C(=O)N[C@@H](CC(=O)O)C(=O)N[C@H](CC(C)C)C(=O)N[C@@H](CC(C)C)C(=O)O1 [surfactin] (EL[dL]VD[dL]L; linker N-C via X1)
MIC (Clostridium perfringens; read-out: MIC (C. perfringens), 30′ 0.1 N HCl, 37° C.): 10 to 25 mg/L (≈ 9.65 to 24.1 µM) | MIC (Clostridium perfringens; read-out: MIC (C. perfringens), 60′ 0.1 N HCl, 37° C.): 25 to 50 mg/L (≈ 24.1 to 48.2 µM) | MIC (Clostridium perfringens; read-out: MIC (C. perfringens), 90′ 0.1 N HCl, 37° C.): 25 to 50 mg/L (≈ 24.1 to 48.2 µM) | MIC (Clostridium perfringens; read-out: MIC (C. perfringens), No HCL): 1 to 10 mg/L (≈ 0.965 to 9.65 µM) | MIC (C. perfringens ATCC13124): 10 to 25 mg/L (≈ 9.65 to 24.1 µM) | inhibition of the activity of cytosolic PLA2 (cytosolic PLA2): inhibits

Infliximab: Remicade® (Infliximab), Centocor, standard drug
Av. Body weight (TNBS-induced colitis; [3]): 180 ± 14 g | Av. Body weight gain (%) (TNBS-induced colitis; [4]): 1.3 ± 5.4 % | Av. Body weight (TNBS-induced colitis; [5]): 183 ± 7 g | Av. Body weight (TNBS-induced colitis; [6]): 186 ± 6 g | Gross morphology score (TNBS-induced colitis; [7]): 3.0 ± 1.4 | Wet weight (g) of a 5 cm colon segment (TNBS-induced colitis; [8]): 1.055 ± 0.490‘ g | Av. Body weight (TNBS-induced colitis; [9]): 208 ± 15 g | Av. Body weight gain (%) (TNBS-induced colitis; [10]): −5.2 ± 3.4% | Av. Body weight (TNBS-induced colitis; [11]): 197 ± 14 g | Av. Body weight (TNBS-induced colitis; [12]): 197 ± 13 g | Gross morphology score (TNBS-induced colitis; [13]): 2.0 ± 0.7 | Wet weight (g) of a 5 cm colon segment (TNBS-induced colitis; [14]): 0.657 ± 0.076 g | number of animals affected by diarrhea (TNBS-induced colitis; first trial, infliximab 3 mg/Kg single dose): 1 | number of observations of diarrhea recorded (TNBS-induced colitis; [15]): 8 | number of animals affected by diarrhea (TNBS-induced colitis; [16]): 2 | number of observations of diarrhea recorded (TNBS-induced colitis; [16]): 24 | colon segment weight of one rat (TNBS-induced colitis; [17]): 0.402 g | gross morphology score of one rat (TNBS-induced colitis; [17]): 1

zinc bacitracin
Phagocytosis [2]: 6.23

— US20080057047A1, “Use of bacillus amyloliquefaciens PB6 for the prophylaxis or treatment of gastrointestinal and immuno-related diseases” (priority 2005, published 2008)
